# Source: paper PMC4710668, “Bioactivation of food genotoxicants 5-hydroxymethylfurfural and furfuryl alcohol by sulfotransferases from human, mouse and rat: a comparative study” (Archives of Toxicology, 2014)
# Legend:
# Assay in all cases: HMF sulfoconjugation assay
# rSult1b1 = molecular target: T1, rSult1b1 (Rattus norvegicus, UniProt P52847); assay type: biochemical
# T1 construct: made in house; host or cells: Salmonella typhimurium TA1538 (cytosolic fraction, enzyme not purified)
# Method: (§1) Cytosolic fractions containing individual SULT forms were prepared from transgenic S. typhimurium TA1538. Table S1 in the Supplementary Material provides a summary of the thirty SULTs used in the current study together with references describing the cloning of the respective S. typhimurium TA1538 strains. The expressed SULT forms are denoted with the prefixes h, m and r for human, mouse and rat enzymes, respectively. Bacteria were grown in Luria Broth medium containing ampicillin (100 µg/ml) by stirring for 8 h at 200 revolutions/min at 37 °C. The bacterial suspensions were centrifuged at 5,000 g for 10 min. The sediments were washed twice with 25 ml of 10 mM potassium phosphate buffer (pH 7.4)/50 mM potassium chloride (KCP buffer) and centrifuged again. The pellets were taken up in 800 µl KCP buffer and sonicated thrice for 15 s with 30 s pauses in between. The soluble fraction was attained by centrifuging for 1 h at 100,000 g. The supernatants (in the following termed cytosolic preparations) were frozen at −80 °C. The protein concentrations were determined according to a bicinchoninic acid (BCA) assay protocol. The SULT concentrations in the cytosolic preparations were estimated after electrophoretic separation and immunodetection using inclusion bodies of different SULT forms as standards (Teubner et al. [2007]). The preparation of SULT inclusion bodies and the immunodetection of SULTs is described in the Supplementary Material, which also contains a representative immunoblot of different amounts of rSult1a1standard and a cytosolic preparation of S. typhimurium expressing rSult1a1 (Fig. S1).
# (§2) The reactions were conducted in mixtures of 100 µl containing 25–200 µg protein, 50 mM potassium phosphate buffer (pH 7.4), 5 mM MgCl2, 50 µM PAPS and different concentrations of HMF at 37 °C. Preliminary experiments ensured that measurements were recorded under ‘linear’ conditions, i.e., doubling of protein concentration or incubation time was doubling the amount of sulfate ester formed. The reactions were stopped after 30 min by adding 300 µl ice-cold 2-propanol, mixed and centrifuged at 15,000 g for 10 min.
# (§3) SMF concentrations of the clear supernatants were analyzed by UPLC-MS/MS. The protocol was adapted from the quantification of SMF in plasma samples of HMF-treated mice (Monien et al. [2009]). In short, the supernatants were analyzed using a UPLC system (Waters) connected to a Quattro Premier XE tandem quadrupole mass spectrometer (Waters) using the negative electrospray ionization mode. Samples of 4 µl were injected into a HSS T3 column (1.8 µm, 2.1 × 100 mm; Waters) and eluted with an isocratic flow of 0.35 ml/min 10 mM ammonium acetate/methanol (95:5). The fragmentation reactions of SMF yielding two principal ions, the sulfate ion radical (m/z = 204.9 → 96.0) and the protonated sulfonate ion (m/z = 204.9 → 81.0) were monitored. The tune parameters were as follows: temperature of the electrospray source 120 °C; desolvation temperature 475 °C; desolvation gas nitrogen (800 l/h); cone gas nitrogen (100 l/h); collision gas argon (indicated cell pressure ~5 × 10^−3 mbar). For the fragmentation of SMF, collision energies were 20 and 23 eV for the transitions m/z = 204.9 → 81.0 and m/z = 204.9 → 96.0, respectively. The dwell time was set to 100 ms, and capillary voltage was set to 0.35 kV. The cone and RF1 lens voltages were 32 and 0.2 V, respectively. SMF was quantified using an external calibration line that was linear in the concentration range of 1.0 nM (4 fmol/injection) to 2,500 (10 pmol/injection) SMF (r ^2 ≥ 0.99). Data acquisition and handling were performed with MassLynx 4.1 software (Waters). The limit of detection (LOD) for this technique of 2.5 nM SMF has been reported (Monien et al. [2009]). In the current study, this corresponds to 10 fmol SMF per injection or a reaction rate of 0.5 pmol SMF/mg/min.
# rSult2a1 = molecular target: T2, rSult2a1 (Rattus norvegicus, UniProt P15709); assay type: biochemical
# T2 construct: made in house; host or cells: Salmonella typhimurium TA1538 (cytosolic fraction, enzyme not purified)
# T2 sequence (P15709 1-284): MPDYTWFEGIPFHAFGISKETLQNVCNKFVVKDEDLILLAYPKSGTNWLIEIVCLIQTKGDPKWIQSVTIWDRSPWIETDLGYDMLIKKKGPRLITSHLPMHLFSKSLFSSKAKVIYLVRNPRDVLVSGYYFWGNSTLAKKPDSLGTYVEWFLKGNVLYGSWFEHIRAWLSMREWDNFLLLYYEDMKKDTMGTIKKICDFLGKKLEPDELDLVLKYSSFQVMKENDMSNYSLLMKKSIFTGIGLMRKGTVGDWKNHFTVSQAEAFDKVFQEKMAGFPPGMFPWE
# Method: as §1, §2, §3
# hSULT1A1 = molecular target: T3, hSULT1A1 (Homo sapiens, UniProt P50225); assay type: biochemical
# T3 construct: made in house; host or cells: Salmonella typhimurium TA1538 (cytosolic fraction, not purified)
# T3 sequence (P50225 whole entry): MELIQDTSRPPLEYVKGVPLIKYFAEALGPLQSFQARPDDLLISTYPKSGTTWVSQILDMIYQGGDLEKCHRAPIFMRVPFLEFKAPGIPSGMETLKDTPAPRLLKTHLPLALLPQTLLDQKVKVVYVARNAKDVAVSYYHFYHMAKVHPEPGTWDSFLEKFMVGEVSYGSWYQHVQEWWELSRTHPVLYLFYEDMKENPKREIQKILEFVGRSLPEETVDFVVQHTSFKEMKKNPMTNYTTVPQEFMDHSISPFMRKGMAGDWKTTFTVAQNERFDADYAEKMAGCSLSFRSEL
# Method: as §1, §2, §3
# hSULT1C2 = molecular target: T4, hSULT1C2 (Homo sapiens, UniProt O75897); assay type: biochemical
# T4 construct: made in house; host or cells: Salmonella typhimurium TA1538 (cytosolic fraction, not purified)
# T4 sequence (O75897 whole entry): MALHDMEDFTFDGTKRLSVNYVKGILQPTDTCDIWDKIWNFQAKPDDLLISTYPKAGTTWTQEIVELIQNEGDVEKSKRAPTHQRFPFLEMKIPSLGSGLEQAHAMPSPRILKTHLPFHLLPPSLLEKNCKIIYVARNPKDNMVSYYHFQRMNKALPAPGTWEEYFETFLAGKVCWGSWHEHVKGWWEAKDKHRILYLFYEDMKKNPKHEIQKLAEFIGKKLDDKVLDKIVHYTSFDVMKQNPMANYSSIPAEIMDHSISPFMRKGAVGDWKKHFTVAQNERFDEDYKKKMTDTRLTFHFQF
# Method: as §1, §2, §3
# mSult2a3 = assay type: biochemical, mouse
# Method: as §1, §2, §3
# mSult5a1 = assay type: biochemical, mouse
# Method: as §1, §2, §3
# [1] = HMF sulfoconjugation, Michaelis-Menten fit
# T1 sequence (P52847 whole entry): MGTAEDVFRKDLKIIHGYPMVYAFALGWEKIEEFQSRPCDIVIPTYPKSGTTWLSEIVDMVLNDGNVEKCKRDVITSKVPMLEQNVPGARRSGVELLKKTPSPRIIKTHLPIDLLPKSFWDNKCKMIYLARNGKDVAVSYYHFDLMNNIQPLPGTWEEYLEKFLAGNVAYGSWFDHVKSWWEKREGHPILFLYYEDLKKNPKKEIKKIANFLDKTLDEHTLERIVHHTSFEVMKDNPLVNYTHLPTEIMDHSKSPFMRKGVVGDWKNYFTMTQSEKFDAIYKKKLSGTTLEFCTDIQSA
compound,measurement,setting,value
"O=Cc1ccc(CO)o1 [HMF, 5-Hydroxymethylfurfural]",Rate of sulfoconjugation,rSult1b1; 0.1 mM HMF,<0.5 pmol/mg/min
same,Rate of sulfoconjugation,rSult1b1; 1 mM HMF,3.4 ± 0.2 pmol/mg/min
same,Rate of sulfoconjugation,rSult1b1; 10 mM HMF,25.2 ± 0.4 pmol/mg/min
same,Rate of sulfoconjugation,rSult1b1; 100 mM HMF,30.8 ± 1.2 pmol/mg/min
same,K M,rSult1b1; [1],15.7 ± 0.9 mM
same,Rate of sulfoconjugation,rSult2a1; 0.1 mM HMF,<0.5 pmol/mg/min
same,Rate of sulfoconjugation,rSult2a1; 1 mM HMF,1.8 ± 0.1 pmol/mg/min
same,Rate of sulfoconjugation,rSult2a1; 10 mM HMF,17.2 ± 0.6 pmol/mg/min
same,Rate of sulfoconjugation,rSult2a1; 100 mM HMF,58.9 ± 4.6 pmol/mg/min
same,"ratio of HMF sulfoconjugation efficiency, hSULT1A1 vs hSULT1C2",hSULT1A1,about 19 times
same,Rate of sulfoconjugation,hSULT1A1; 0.1 mM HMF,20.4 ± 2.8 pmol/mg/min
same,Rate of sulfoconjugation,hSULT1A1; 1 mM HMF,171 ± 18 pmol/mg/min
same,Rate of sulfoconjugation,hSULT1A1; 10 mM HMF,641 ± 100 pmol/mg/min
same,Rate of sulfoconjugation,hSULT1A1; 100 mM HMF,699 ± 170 pmol/mg/min
same,K M,hSULT1A1; [1],3.2 ± 0.4 mM
same,Rate of sulfoconjugation,hSULT1C2; 0.1 mM HMF,1.1 ± 0.3 pmol/mg/min
same,Rate of sulfoconjugation,hSULT1C2; 1 mM HMF,14.0 ± 1.8 pmol/mg/min
same,Rate of sulfoconjugation,hSULT1C2; 10 mM HMF,115 ± 14 pmol/mg/min
same,Rate of sulfoconjugation,hSULT1C2; 100 mM HMF,285 ± 71 pmol/mg/min
same,K M,hSULT1C2; [1],18.8 ± 5.4 mM
same,Rate of sulfoconjugation,mSult2a3; 0.1 mM HMF,<0.5 pmol/mg/min
same,Rate of sulfoconjugation,mSult2a3; 1 mM HMF,<0.5 pmol/mg/min
same,Rate of sulfoconjugation,mSult2a3; 10 mM HMF,<0.5 pmol/mg/min
same,Rate of sulfoconjugation,mSult2a3; 100 mM HMF,<0.5 pmol/mg/min
same,Rate of sulfoconjugation,mSult5a1; 0.1 mM HMF,<0.5 pmol/mg/min
same,Rate of sulfoconjugation,mSult5a1; 1 mM HMF,<0.5 pmol/mg/min
same,Rate of sulfoconjugation,mSult5a1; 10 mM HMF,<0.5 pmol/mg/min
same,Rate of sulfoconjugation,mSult5a1; 100 mM HMF,<0.5 pmol/mg/min
